{"source": "patent US20240197890A1", "about": "“FLAVONE DERIVATIVES AND USES IN TARGETING CK2-MEDIATED DISEASES AND CONDITIONS” (Salk Institute for Biological Studies, priority 2020, published 2024)", "key": {"IL6 expression": {"tested_on": "IL6 expression", "experiment": "IL6 expression in AD patient iPSC-derived astrocytes after IL1-β stimulation (qRT-PCR)", "assay_type": "cell-based, human", "details": "controls and AD astrocytes"}, "AKT pS129": {"tested_on": "AKT pS129", "experiment": "AKT pS129 levels in IL1β-stimulated primary astrocytes", "assay_type": "cell-based", "details": "IL1-β for 5 h", "description": "AKT pS129 is a known direct CK2 substrate."}, "[1]": {"tested_on": "IL-6, IL-8, TNF-α and MCP-1 in primary human cerebellar astrocytes (HCA)", "experiment": "Flow-cytometry assay of intracellular cytokine production in IL1-β-treated astrocytes", "assay_type": "cell-based", "procedure": "Flow cytometry. For each well of HCA in a 6-well plate, 2 mL of fresh media with GolgiPLUG (BD #555029, 1:1000) and GolgiSTOP (BD #554724, 1:1000) with 20 μM compound or vehicle (DMSO) and IL1-β 10 ng/mL or DPBS was added. The cells were incubated for 5 h at 37° C. Cells were collected with TrypLE and plated into a 96-well V-bottom plate for staining. The plate was centrifuged for 5 min, 1300 rpm, 4° C. to pellet cells, which were subsequently resuspended in 100 μl DPBS with 1 μl Zombie Violet (Biolegend #423113) and 5 μl Human Trustain FC block (Biolegend #422302) per well for 15 min at room temperature in the dark. The plate was centrifuged, supernatant was aspirated, and the cells were washed with 100 μl/well DPBS. Cells were fixed with 100 μl/well of Cytofix/Cytoperm (BD) for 20 min at 4° C. The plate was centrifuged, supernatant was aspirated, and cells were resuspended in 100 μl Permwash (BD) and incubated for 15 min at 4° C. The plate was centrifuged, supernatant was aspirated, and cells were incubated with 100 μl/well of Ab mix or isotype mix in Permwash (see below) for 20 min at 4° C., followed by centrifugation and 2× PermWash washes. The cells were resuspended in 100 ul DPBS and transferred to FACS tubes containing 200 ul of PBS (total volume per tube 300 μl) for analysis on FACS Analyzers (LSRII or Fortessa).\nPrimary human cerebellar astrocytes (HCA) were co-treated with 20 μM of each compound or vehicle (DMSO), 10 ng/mL IL1-β, and a protein transport inhibitor for 6 hours, and then processed for intracellular staining of pro-inflammatory cytokines IL-6, IL-8, TNF-α, and MCP-1. […]; in vitro IC50 values are for CK2 as reported in the literature)."}, "[2]": {"molecular_target": "T1, recombinant human CK2a1 kinase (Homo sapiens, UniProt P68400)", "T1 construct": "purchased Thermo Fisher PV3248", "T1 sequence (P68400 whole entry)": "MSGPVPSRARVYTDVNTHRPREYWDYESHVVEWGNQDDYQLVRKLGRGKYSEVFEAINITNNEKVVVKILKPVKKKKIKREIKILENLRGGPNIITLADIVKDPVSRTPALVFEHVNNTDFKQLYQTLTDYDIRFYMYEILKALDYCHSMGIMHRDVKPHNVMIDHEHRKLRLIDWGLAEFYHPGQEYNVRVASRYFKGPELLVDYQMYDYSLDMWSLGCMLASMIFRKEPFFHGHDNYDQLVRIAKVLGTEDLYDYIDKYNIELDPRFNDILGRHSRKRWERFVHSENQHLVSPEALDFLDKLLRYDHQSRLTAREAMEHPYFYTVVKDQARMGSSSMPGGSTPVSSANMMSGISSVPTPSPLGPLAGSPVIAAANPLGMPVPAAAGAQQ", "experiment": "In vitro kinase assay (PhosphoSens, Cysteine-Sox sensor peptide)", "assay_type": "biochemical", "details": "FIG. 4A", "procedure": "Kinase assays. In vitro kinase assays were run using the Cysteine-Sox-Kinase Sensor AQT0696, 96 assay Kit (AssayQuant Tech, CSKS-AQT0696). […] Slopes corresponding to linear reaction rates were obtained for each compound concentration (RFU/sec), normalized to DMSO controls, and IC50 values were determined by applying the dose response non-linear regression model in GraphPad Prism. For kinase assays using postmortem brain tissue lysates, brain tissues were homogenized at 4° C. using a Bullet Blender (Next Advance) in kinase buffer (20 mM HEPES 7.4 pH, 150 mM NaCl, 1% Triton-X, 1 mM EDTA, 1 mM EGTA plus Halt Protease and Phosphase Inhibitor Cocktail). After sonication and clarification, protein concentration was measured by BCA Assay. CK2 activity was measured as described above, except lysates were used instead of purified kinase at 2 μL/well (˜0.3-0.4 ug protein per reaction). […] Patient lysates were individually preincubated with 20 μM CX4945 for 30 min at room temperature before initiating kinase kinetic assays."}, "[3]": {"tested_on": "microglial phagocytosis of pHrodo E. coli beads", "experiment": "Microglial phagocytosis assay", "assay_type": "cell-based, human", "details": "20 μM, 5 h treatment", "procedure": "Phagocytosis assay. […] Then, 0.5 μl of pH rodo E. coli-FITC beads (Thermo Fisher, P35366) was added per well with gentle mixing and the cells were incubated for another 4 hours. pHrodo beads only fluoresce when they are internalized in cells. Cells were then collected by scraping, washed with FACS buffer, and counter-stained with Zombie Violet to assess viability. Live cells were analyzed on the FACS Canto instrument for geometric mean fluorescence on the FITC channel. The background FITC fluorescence value (pHrodo beads only) was subtracted from each mean, and fold-change was computed across experimental groups."}, "CK2α1": {"molecular_target": "T2, CK2α1 (Homo sapiens, UniProt P68400)", "T2 construct": "endogenous in cells", "T2 sequence (P68400 whole entry)": "as above", "experiment": "Thermal shift assay with Western blotting in astrocyte extracts", "assay_type": "binding", "details": "extracts of iPSC-derived astrocytes", "procedure": "Thermal shift assay and TPP. […] Protein concentration was determined by BCA assay (Bio-Rad), and lysates were diluted to 2 mg/mL. […] Reactions were incubated at rt for 30 min, after which each treated extract was divided into 10 aliquots of 95 μl in PCR strip tubes and stored on ice. […] A small aliquot (5 μl) of supernatant was saved for Western blotting, and the rest was snap frozen at −80 C and submitted for LC-MS/MS."}}, "data": [{"smiles": "COc1cc(-c2cc(=O)c3c(O)cc(O)cc3o2)ccc1O", "note": "[CHR, chrysoeriol]", "values": [{"measurement": "IL6 expression after IL1-β stimulation", "setting": "IL6 expression", "value": "reduced"}, {"measurement": "AKT pS129 levels", "setting": "AKT pS129", "value": "reduced"}, {"measurement": "suppression of IL1-β-induced IL-6, IL-8, TNF-α and MCP-1 cytokine upregulation", "setting": "[1]; 20 μM, human astrocytes", "value": "strong suppressive activity"}, {"measurement": "summary of SAR data, activity class", "setting": "[1]; at 20 μM, FIG. 5A", "value": "active"}, {"measurement": "inhibition of CK2a1 in vitro (activity class in words)", "setting": "[2]", "value": "active"}, {"measurement": "microglial phagocytosis of pHrodo E. coli beads", "setting": "[3]", "value": "blocked"}, {"measurement": "binding / thermal stabilization of CK2a", "setting": "CK2α1", "value": "dose-dependently stabilized"}, {"measurement": "binding / thermal stabilization of CK2a", "setting": "CK2α1; listed as chrysoeriol", "value": "bind CK2a"}]}]}
